According to ChEMBL document CHEMBL1212804, “Comparative study of the mutant prevention concentrations of moxifloxacin, levofloxacin, and gemifloxacin against pneumococci” (2010):
Values after ≈ are worked out from the molar mass of the structure shown.

What was measured:
Type in all cases: functional
Streptococcus pneumoniae [1] = experiment: Antibacterial activity against Streptococcus pneumoniae 1072 assessed as mutant prevention concentration by standard agar dilution method
Streptococcus pneumoniae [2] = experiment: Antibacterial activity against Streptococcus pneumoniae 1151 assessed as mutant prevention concentration by standard agar dilution method
Streptococcus pneumoniae [3] = experiment: Antibacterial activity against Streptococcus pneumoniae 1135 assessed as mutant prevention concentration by standard agar dilution method
Streptococcus pneumoniae [4] = experiment: Antibacterial activity against Streptococcus pneumoniae 1058 by standard agar dilution method
Streptococcus pneumoniae [5] = experiment: Antibacterial activity against Streptococcus pneumoniae 1065 assessed as mutant prevention concentration by standard agar dilution method
Streptococcus pneumoniae [6] = experiment: Antibacterial activity against Streptococcus pneumoniae 3321 by standard agar dilution method
Streptococcus pneumoniae [7] = experiment: Antibacterial activity against Streptococcus pneumoniae ATCC 49619 assessed as 90% mutant prevention concentration
Streptococcus pneumoniae [8] = experiment: Ratio of 90% mutant prevention concentration to MIC90 in Streptococcus pneumoniae ATCC 49619
Streptococcus pneumoniae [9] = experiment: Ratio of 50% mutant prevention concentration to MIC50 in Streptococcus pneumoniae ATCC 49619
Streptococcus pneumoniae [10] = experiment: Antibacterial activity against Streptococcus pneumoniae 1151 by standard agar dilution method
Streptococcus pneumoniae [11] = experiment: Antibacterial activity against Streptococcus pneumoniae 1072 by standard agar dilution method
Streptococcus pneumoniae [12] = experiment: Antibacterial activity against Streptococcus pneumoniae 1065 by standard agar dilution method
Streptococcus pneumoniae [13] = experiment: Antibacterial activity against Streptococcus pneumoniae 1149 by standard agar dilution method
Streptococcus pneumoniae [14] = experiment: Antibacterial activity against Streptococcus pneumoniae 3321 assessed as mutant prevention concentration by standard agar dilution method
Streptococcus pneumoniae [15] = experiment: Antibacterial activity against Streptococcus pneumoniae 1058 assessed as mutant prevention concentration by standard agar dilution method
Streptococcus pneumoniae [16] = experiment: Antibacterial activity against Streptococcus pneumoniae 1149 assessed as mutant prevention concentration by standard agar dilution method
Streptococcus pneumoniae [17] = experiment: Antibacterial activity against Streptococcus pneumoniae ATCC 49619 assessed as 50% mutant prevention concentration
Streptococcus pneumoniae [18] = experiment: Antibacterial activity against Streptococcus pneumoniae 1135 by standard agar dilution method
Streptococcus pneumoniae [19] = experiment: Antibacterial activity against Streptococcus pneumoniae ATCC 49619
[20] = Ratio of AUC to MIC in Streptococcus pneumoniae ATCC 49619

Structure (SMILES) | Activity (Streptococcus pneumoniae [1]) [µg/mL] | Activity (Streptococcus pneumoniae [2]) [µg/mL] | Activity (Streptococcus pneumoniae [3]) [µg/mL] | MIC (Streptococcus pneumoniae [4]) [µg/mL] | Activity (Streptococcus pneumoniae [5]) [µg/mL] | MIC (Streptococcus pneumoniae [6]) [µg/mL] | Activity (Streptococcus pneumoniae [7]) [µg/mL] | Ratio (Streptococcus pneumoniae [8]) | Ratio (Streptococcus pneumoniae [9]) | MIC (Streptococcus pneumoniae [10]) [µg/mL] | MIC (Streptococcus pneumoniae [11]) [µg/mL] | MIC (Streptococcus pneumoniae [12]) [µg/mL] | MIC (Streptococcus pneumoniae [13]) [µg/mL] | Activity (Streptococcus pneumoniae [14]) [µg/mL] | Activity (Streptococcus pneumoniae [15]) [µg/mL] | Activity (Streptococcus pneumoniae [16]) [µg/mL] | Activity (Streptococcus pneumoniae [17]) [µg/mL] | MIC (Streptococcus pneumoniae [18]) [µg/mL] | MIC50 (Streptococcus pneumoniae [19]) [µg/mL] | MIC90 (Streptococcus pneumoniae [19]) [µg/mL] | other results
CO/N=C1\CN(c2nc3c(cc2F)c(=O)c(C(=O)O)cn3C2CC2)CC1CN (configuration not stated) [GEMIFLOXACIN] | 8 | 8 | 4 | 0.125 (≈ 0.321 µM) | 4 | 0.125 (≈ 0.321 µM) | 4 | 4 | 4 | 1 (≈ 2.57 µM) | 1 (≈ 2.57 µM) | 0.125 (≈ 0.321 µM) | 0.5 (≈ 1.28 µM) | 2 | 1 | >8 | 0.5 | 0.5 (≈ 1.28 µM) | 0.125 (≈ 0.321 µM) | 1 (≈ 2.57 µM) | 
O=C(O)c1cn(C2CC2)c2cc(N3CCNCC3)c(F)cc2c1=O |  |  |  |  |  |  |  |  |  |  |  |  |  |  |  |  |  |  |  |  | RatioAUC/MIC [20]: 30
C[C@H]1COc2c(N3CCN(C)CC3)c(F)cc3c(=O)c(C(=O)O)cn1c23.C[C@H]1COc2c(N3CCN(C)CC3)c(F)cc3c(=O)c(C(=O)O)cn1c23.O [LEVOFLOXACIN] | 256 | 32 | 128 |  | 32 |  | 64 |  |  |  |  |  |  | 32 | 64 | >64 | 4 |  | 2 | 32 | 
COc1c(N2C[C@@H]3CCCN[C@@H]3C2)c(F)cc2c(=O)c(C(=O)O)cn(C3CC3)c12 [MOXIFLOXACIN] | 64 | >8 | 32 | 0.5 (≈ 1.25 µM) | >8 | 0.5 (≈ 1.25 µM) | 16 | 4 | 2 | 1 (≈ 2.49 µM) | 8 (≈ 19.9 µM) | 0.5 (≈ 1.25 µM) | 0.5 (≈ 1.25 µM) | >8 | >4 | >8 | 1 | 2 (≈ 4.98 µM) | 0.5 (≈ 1.25 µM) | 4 (≈ 9.96 µM) | 
